The source of these data is US11953435B2, “Zinc-responsive fluorophores” (Northwestern University, priority 2019, dated 2024).

Usually LogP stands for a log measure of how a compound divides between an organic and an aqueous phase. Low values mean lower lipophilicity, high ones higher lipophilicity.

The structures appear in SMILES notation.

The data set in a line: Octanol-water partition coefficient (log P). Format: physicochemical. To be noted: 1:1 HEPES buffer and 1-octanol. The method, then: Aqueous solutions were prepared by using de-ionized water with resistivity […], obtained using a Milli-Q water purification system. In order to properly compare the photophysical properties of ZincBY-2, ZincBY-3, and ZincBY-4 to ZincBY-1, the photophysical properties of ZincBY-1 we remeasured. Tested values differed from the previously published values (Ref. B2; incorporated by reference in its entirety). It was determined that copper was present in the aqueous buffer used for in vitro analysis of the previous samples. The corrected values are used herein, utilizing buffers that are copper-free. Stock solutions of ZincBY-1, ZincBY-2, ZincBY-3, and ZincBY-4 were prepared at concentrations of 5 mM and stored at −20° C. in aliquots that were used immediately after thawing for each experiment. Unless otherwise stated, all spectroscopic methods were conducted in aqueous buffer containing 50 mM HEPES (pH 7.2) and 0.1 M KNO3. […] Fluorescence spectra were acquired using a PerkinElmer LS 55 fluorescence spectrophotometer. […] Quantum yields for apo and holo ZincBY-1, ZincBY-2, ZincBY-3, and ZincBY-4 were determined by plotting absorbance vs. fluorescence intensity of solutions containing ZincBY-1, ZincBY-2, ZincBY-3, or ZincBY-4 at probe concentrations ranging from 50-250 nM. […] Fluorescein dissolved in 0.1 N NaOH was used as the quantum yield standard, using a literature-determined quantum yield of 0.95.^3 For all fluorophore solutions, fluorescence excitation was set at 490 nm and fluorescence emission was integrated from 510 nm to 650 nm. […] Fluorescence spectra were recorded using zinc probes (ZincBY-1, ZincBY-2, ZincBY-3, or ZincBY-4; 200 nM) and ZnSO4 (various concentrations). […] Free Zn^2+ was calculated according to a previously reported method (Ref. B4; incorporated by reference in its entirety). […] The fluorescence spectra of zinc probes (ZincBY-2, ZincBY-3, or ZincBY-4; 200 nM) wasere measured at various pH values (4.5-11). […] The fluorescence spectra were compared to that of ZincBY-2 (200 nM), ZincBY-3 (200 nM), or ZincBY-4 (200 nM) in the presence of 10 μM TPEN. […]

Molecule `CC(=O)NCCOc1ccc2n1[B-](F)(F)[N+]1=C(N(CCN(Cc3ccccn3)Cc3ccccn3)Cc3ccccn3)C=CC1=C2c1c(C)cc(C)cc1C` [ZincBY-4, N-(2-((7-((2-(bis(pyridin-2-ylmethyl)amino)ethyl)(pyridin-2-ylmethyl)amino)-5,5-difluoro-10-mesityl-5H-5λ4,6λ4-dipyrrolo[1,2-c:2′,1′-f][1,3,2]diazaborinin-3-yl)oxy)ethyl)acetamide] gave a lipophilicity (LogP) of about 0.33. In turn, `Cc1cc(C)c(C2=C3C=CC(OCCN)=[N+]3[B-](F)(F)n3c2ccc3N(CCN(Cc2ccccn2)Cc2ccccn2)Cc2ccccn2)c(C)c1` [ZincBY-3, N1-(7-(2-aminoethoxy)-5,5-difluoro-10-mesityl-5H-4λ4,5λ4-dipyrrolo[1,2-c:2′,1′-f][1,3,2]diazaborinin-3-yl)-N1,N2,N2-tris(pyridin-2-ylmethyl)ethane-1,2-diamine] returned a log partition coefficient (LogP) of about 0.15.

With `Cc1cc(C)c(C2=C3C=CC(OCCN=[N+]=[N-])=[N+]3[B-](F)(F)n3c2ccc3N(CCN(Cc2ccccn2)Cc2ccccn2)Cc2ccccn2)c(C)c1` [ZincBY-2, N1-(7-(2-azidoethoxy)-5,5-difluoro-10-mesityl-5H-4λ4,5λ4-dipyrrolo[1,2-c:2′,1′-f][1,3,2]diazaborinin-3-yl)-N1,N2,N2-tris(pyridin-2-ylmethyl)ethane-1,2-diamine], the LogP is about 1.25.
